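Compound exposure: 48 hours, 5 concentrations, 96-well plates. The concentration for 50% growth inhibition is given as GI50.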 Activity calls are given as the source filed them. No stated cut-off is given here; in the data, active = GI50 up to about 1.1 µM and inactive = higher.
Legend:
Assay in all cases: DTP human tumour cell line panel, 48 h
OVCAR-5 = system: OVCAR-5
NCI-H226 = system: NCI-H226
MOLT-4 = system: MOLT-4
SW-620 = system: SW-620
RXF 631 = system: RXF 631
KM-20L2 = system: KM-20L2
HCT-116 = system: HCT-116
LOX IMVI = system: LOX IMVI
SF-539 = system: SF-539
M14 = system: M14
OVCAR-8 = system: OVCAR-8
HCC 2998 = system: HCC 2998
HT-29 = system: HT-29
SK-OV-3 = system: SK-OV-3
786-0 = system: 786-0
A498 = system: A498
UACC-257 = system: UACC-257
DMS-114 = system: DMS-114
COLO 205 = system: COLO 205
IGROV-1 = system: IGROV-1
SK-MEL-2 = system: SK-MEL-2
SF-268 = system: SF-268
XF498 = system: XF498
OVCAR-3 = system: OVCAR-3
K562 = system: K562
HOP-62 = system: HOP-62
EKVX = system: EKVX
U-251 = system: U-251
TK-10 = system: TK-10
SNB-19 = system: SNB-19
SF-295 = system: SF-295
A549 = system: A549
NCI-H460 = system: NCI-H460
HOP-92 = system: HOP-92
M19-MEL = system: M19-MEL
SNB-75 = system: SNB-75
UACC-62 = system: UACC-62
ACHN = system: ACHN
KM12 = system: KM12
HL-60 = system: HL-60
LXFL 529 = system: LXFL 529
CCRF-CEM = system: CCRF-CEM
DMS-273 = system: DMS-273
SN12C = system: SN12C
SK-MEL-5 = system: SK-MEL-5
SK-MEL-28 = system: SK-MEL-28
SNB-78 = system: SNB-78
HCT-15 = system: HCT-15
UO-31 = system: UO-31
NCI-H522 = system: NCI-H522
RPMI-8226 = system: RPMI-8226
Malme-3M = system: Malme-3M
CAKI-1 = system: CAKI-1
RXF 393 = system: RXF 393
OVCAR-4 = system: OVCAR-4
NCI-H23 = system: NCI-H23
DLD-1 = system: DLD-1
SR = system: SR

SMILES: CC(=O)N1CC2Nc3ccccc3C2CC1CO (centres undefined)
- GI50 (OVCAR-5): > 100 µM (inactive)
- GI50 (NCI-H226): > 100 µM (inactive)
- GI50 (MOLT-4): > 100 µM (inactive)
- GI50 (SW-620): > 100 µM (inactive)
- GI50 (RXF 631): > 100 µM (inactive)
- GI50 (KM-20L2): > 100 µM (inactive)
- GI50 (HCT-116): > 100 µM (inactive)
- GI50 (LOX IMVI): > 100 µM (inactive)
- GI50 (SF-539): > 100 µM (inactive)
- GI50 (M14): > 100 µM (inactive)
- GI50 (OVCAR-8): > 100 µM (inactive)
- GI50 (HCC 2998): > 100 µM (inactive)
- GI50 (HT-29): > 100 µM (inactive)
- GI50 (SK-OV-3): > 100 µM (inactive)
- GI50 (786-0): > 100 µM (inactive)
- GI50 (A498): > 100 µM (inactive)
- GI50 (UACC-257): > 100 µM (inactive)
- GI50 (DMS-114): > 100 µM (inactive)
- GI50 (COLO 205): > 100 µM (inactive)
- GI50 (IGROV-1): > 100 µM (inactive)
- GI50 (SK-MEL-2): > 100 µM (inactive)
- GI50 (SF-268): > 100 µM (inactive)
- GI50 (XF498): > 100 µM (inactive)
- GI50 (OVCAR-3): > 100 µM (inactive)
- GI50 (K562): > 100 µM (inactive)
- GI50 (HOP-62): > 100 µM (inactive)
- GI50 (EKVX): > 100 µM (inactive)
- GI50 (U-251): > 100 µM (inactive)
- GI50 (TK-10): > 100 µM (inactive)
- GI50 (SNB-19): > 100 µM (inactive)
- GI50 (SF-295): > 100 µM (inactive)
- GI50 (A549): > 100 µM (inactive)
- GI50 (NCI-H460): > 100 µM (inactive)
- GI50 (HOP-92): > 100 µM (inactive)
- GI50 (M19-MEL): > 100 µM (inactive)
- GI50 (SNB-75): 17.7 µM (inactive)
- GI50 (UACC-62): > 100 µM (inactive)
- GI50 (ACHN): > 100 µM (inactive)
- GI50 (KM12): > 100 µM (inactive)
- GI50 (HL-60): > 100 µM (inactive)
- GI50 (LXFL 529): > 100 µM (inactive)
- GI50 (CCRF-CEM): > 100 µM (inactive)
- GI50 (DMS-273): > 100 µM (inactive)
- GI50 (SN12C): > 100 µM (inactive)
- GI50 (SK-MEL-5): > 100 µM (inactive)
- GI50 (SK-MEL-28): > 100 µM (inactive)
- GI50 (SNB-78): > 100 µM (inactive)
- GI50 (HCT-15): > 100 µM
- GI50 (UO-31): > 100 µM (inactive)
- GI50 (NCI-H522): > 100 µM (inactive)
- GI50 (RPMI-8226): > 100 µM (inactive)
- GI50 (Malme-3M): > 100 µM (inactive)
- GI50 (CAKI-1): > 100 µM (inactive)
- GI50 (RXF 393): > 100 µM (inactive)
- GI50 (OVCAR-4): > 100 µM (inactive)
- GI50 (NCI-H23): > 100 µM (inactive)
- GI50 (DLD-1): > 100 µM (inactive)

SMILES: O=c1c2ccccc2nc(-c2ccccc2Cl)n1NCC1(O)OCC(O)C(O)C1O (centres undefined)
- GI50 (OVCAR-5): > 100 µM (inactive)
- GI50 (MOLT-4): > 100 µM (inactive)
- GI50 (SW-620): > 100 µM (inactive)
- GI50 (RXF 631): > 100 µM (inactive)
- GI50 (KM-20L2): > 100 µM (inactive)
- GI50 (HCT-116): > 100 µM (inactive)
- GI50 (LOX IMVI): > 100 µM (inactive)
- GI50 (SF-539): > 100 µM (inactive)
- GI50 (M14): > 100 µM (inactive)
- GI50 (OVCAR-8): > 100 µM (inactive)
- GI50 (HT-29): > 100 µM (inactive)
- GI50 (SK-OV-3): > 100 µM (inactive)
- GI50 (786-0): > 100 µM (inactive)
- GI50 (A498): > 100 µM (inactive)
- GI50 (UACC-257): > 100 µM (inactive)
- GI50 (DMS-114): > 100 µM (inactive)
- GI50 (COLO 205): > 100 µM (inactive)
- GI50 (SK-MEL-2): > 100 µM (inactive)
- GI50 (SF-268): > 100 µM (inactive)
- GI50 (XF498): > 100 µM (inactive)
- GI50 (OVCAR-3): > 100 µM (inactive)
- GI50 (K562): > 100 µM (inactive)
- GI50 (EKVX): > 100 µM (inactive)
- GI50 (U-251): > 100 µM (inactive)
- GI50 (TK-10): > 100 µM (inactive)
- GI50 (SNB-19): > 100 µM (inactive)
- GI50 (SF-295): > 100 µM (inactive)
- GI50 (A549): > 100 µM (inactive)
- GI50 (NCI-H460): > 100 µM (inactive)
- GI50 (M19-MEL): > 100 µM (inactive)
- GI50 (SNB-75): 62.2 µM (inactive)
- GI50 (UACC-62): > 100 µM (inactive)
- GI50 (ACHN): > 100 µM (inactive)
- GI50 (KM12): > 100 µM (inactive)
- GI50 (HL-60): > 100 µM (inactive)
- GI50 (LXFL 529): > 100 µM (inactive)
- GI50 (CCRF-CEM): > 100 µM (inactive)
- GI50 (DMS-273): > 100 µM (inactive)
- GI50 (SN12C): > 100 µM (inactive)
- GI50 (SK-MEL-5): > 100 µM (inactive)
- GI50 (SK-MEL-28): > 100 µM (inactive)
- GI50 (SNB-78): > 100 µM (inactive)
- GI50 (HCT-15): > 100 µM
- GI50 (UO-31): > 100 µM (inactive)
- GI50 (NCI-H522): > 100 µM (inactive)
- GI50 (RPMI-8226): > 100 µM (inactive)
- GI50 (Malme-3M): > 100 µM (inactive)
- GI50 (CAKI-1): > 100 µM (inactive)
- GI50 (RXF 393): > 100 µM (inactive)
- GI50 (SR): > 100 µM (inactive)
- GI50 (OVCAR-4): > 100 µM (inactive)
- GI50 (NCI-H23): > 100 µM (inactive)

Reference: ChEMBL document CHEMBL1201862, “PubChem BioAssay data set” (2004)
